From KR20190134073A, “셀레질린을 유효성분으로 포함하는 급성 골수성 백혈병의 예방 또는 치료용 약학 조성물” (충남대학교산학협력단, priority 2018, dated 2019)

Tests used:
Assay type in all cases: cell-based
[1] = test system: KG-1α cells (refractory or relapsed acute myeloid leukemia cells) [불응성 또는 재발성 급성 골수성 백혈병 세포(KG-1α)]; assay: Cell viability (CCK-8) in refractory/relapsed AML cells KG-1α; conditions: for viability at 500 µM / viability at 1000 µM / viability at 2000 µM / viability at 4000 µM: Homo sapiens, KG-1, 24 h, read-out: cell viability; for cell killing effect: KG-1α, 0.5, 1, 2 and 4 mM, 24 h, in words
[2] = test system: U937 cells (acute myeloid leukemia cells) [급성 골수성 백혈병 세포(U937)]; assay: cells; conditions: for cell killing effect: acute leukemia cells (U937), 0.5, 1, 2 and 4 mM, 24 h, in words
[3] = test system: K562 cells (chronic myeloid leukemia cells) [만성 골수성 백혈병 세포(K562)]; assay: Cell viability (CCK-8) in CML cells K562; conditions: K562 vs U937 or KG-1α; 0.5, 1, 2 and 4 mM; 24 h; in words, not shown in Table 1
[4] = test system: KG-1α cells (refractory or relapsed acute myeloid leukemia cells) [불응성 또는 재발성 급성 골수성 백혈병 세포(KG-1α)]; assay: Change of mitochondrial oxygen consumption rate in KG-1α cells; conditions: 0, 0.5, 1, 2, 4 mM, 20 min, FIG. 2, in words
[5] = test system: KG-1α cells (refractory or relapsed acute myeloid leukemia cells) [불응성 또는 재발성 급성 골수성 백혈병 세포(KG-1α)]; assay: Change of ATP production in KG-1α cells (ATPlite 1step kit); conditions: 4 mM, 20 min, 37℃, control PBS, FIG. 3, in words
[6] = Homo sapiens, U-937, 24 h, read-out: cell viability

Nc1ccn([C@@H]2O[C@H](CO)[C@@H](O)[C@@H]2O)c(=O)n1 [시타라빈] showed a viability at 500 µM [1] of 95.2%, a viability at 1000 µM [1] of 96.9% and a viability at 2000 µM [1] of 97.7%. The viability at 4000 µM [1] was 95.3%, the cell killing effect [1] was “세포 사멸 효과를 나타내지 않은” and the viability at 500 µM [2, 6] was 45.3%. For the same compound, the viability at 1000 µM [2, 6] was 43.9%, the viability at 2000 µM [2, 6] was 40.9% and the viability at 4000 µM [2, 6] was 40.7%. The cell killing effect [2] was “세포 사멸 효과는 우수하였으나”.
C#CCN(C)[C@H](C)Cc1ccccc1 [셀레질린, selegiline] gave a viability at 500 µM [1] of 93.1%, a viability at 1000 µM [1] of 86% and a viability at 2000 µM [1] of 63%. The viability at 4000 µM [1] was 51.8%, the cell killing effect [1] was “세포 사멸 효과가 우수하게 나타남” and the cell killing effect [2] was “세포 사멸 효과를 모두 나타내는 것”. The “cell killing effect in K562 compared with U937 or KG-1α” value [3] was “만성 골수성 백혈병 세포(K562)에 대한 세포 사멸 효과 보다는 급성 골수성 백혈병 세포(U937) 또는 불응성 또는 재발성 급성 골수성 백혈병 세포(KG-1α)에 대한 세포 사멸 효과가 우수하였다”, the oxygen consumption rate [4] was “산소 소모율이 농도 의존적으로 감소함” and the ATP production [5] was “ATP 생성이 감소됨”.
